# According to US20260273073A1, “TRANSDUCIN BETA-LIKE PROTEIN 1 DEGRADERS” (Ohio State Innovation Foundation, priority 2023, published 2026):
# Like-named read-outs stand apart in the source and are kept apart here.
# Legend:
# Format in all cases: cell-based
# Riva = assay: PROTAC compounds evaluated against lymphoma cell line Riva
# Experimental: (§1) A library of PROTAC compounds was prepared according to the sequences depicted in FIGS. 1 and 2. These compounds were evaluated against three different lymphoma cell lines (Riva, Pfeiffer, and Granta-519): […]
# Pfeiffer = assay: PROTAC compounds evaluated against lymphoma cell line Pfeiffer
# Experimental: as §1
# Granta-519 = assay: PROTAC compounds evaluated against lymphoma cell line Granta-519; settings: Granta-519 lymphoma cell line
# Experimental: as §1
SMILES,IC50 (Riva) [nM],IC50 (Pfeiffer) [nM],IC50 (Granta-519) [nM],IC50 (Pfeiffer; Homo sapiens) [nM],IC50 (Granta-519; Homo sapiens) [nM]
CC1CC(C)CN(S(=O)(=O)c2ccc3c(c2)C(=NO)c2cc(S(=O)(=O)N4CCN(C(=O)CCCCCCNc5cccc6c5C(=O)N(C5CCC(=O)NC5=O)C6=O)CC4)ccc2C3=NO)C1 (stereo not drawn) [RY-3-108],605,343,439,,
CC1CC(C)CN(S(=O)(=O)c2ccc3c(c2)C(=NO)c2cc(S(=O)(=O)N4CCN(C(=O)CCOCCOCCNc5cccc6c5C(=O)N(C5CCC(=O)NC5=O)C6=O)CC4)ccc2C3=NO)C1 (stereo not drawn) [RY-3-113],> 20000,> 20000,> 20000,,
CC1CC(C)CN(S(=O)(=O)c2ccc3c(c2)C(=NO)c2cc(S(=O)(=O)N4CCN(C(=O)CCNc5cccc6c5C(=O)N(C5CCC(=O)NC5=O)C6=O)CC4)ccc2C3=NO)C1 (stereo not drawn) [RY-3-119],797,564,399,,
CC1CC(C)CN(S(=O)(=O)c2ccc3c(c2)C(=NO)c2cc(S(=O)(=O)N4CCN(C(=O)CCCCNc5cccc6c5C(=O)N(C5CCC(=O)NC5=O)C6=O)CC4)ccc2C3=NO)C1 (stereo not drawn) [RY-3-120],560,647,496,,
CC1CC(C)CN(S(=O)(=O)c2ccc3c(c2)C(=NO)c2cc(S(=O)(=O)N4CCN(C(=O)CCCCCCCCCCNc5cccc6c5C(=O)N(C5CCC(=O)NC5=O)C6=O)CC4)ccc2C3=NO)C1 (stereo not drawn) [RY-3-121],1160,2500,1160,,
CC1CC(C)CN(S(=O)(=O)c2ccc3c(c2)C(=NO)c2cc(S(=O)(=O)N4CCN(C(=O)CCOCCNc5cccc6c5C(=O)N(C5CCC(=O)NC5=O)C6=O)CC4)ccc2C3=NO)C1 (stereo not drawn) [RY-3-122],> 20000,> 20000,> 20000,,
CC1CC(C)CN(S(=O)(=O)c2ccc3c(c2)C(=NO)c2cc(S(=O)(=O)N4CCN(C(=O)CCOCCOCCOCCNc5cccc6c5C(=O)N(C5CCC(=O)NC5=O)C6=O)CC4)ccc2C3=NO)C1 (stereo not drawn) [RY-3-123],> 20000,> 20000,> 20000,,
CC1CC(C)CN(S(=O)(=O)c2ccc3c(c2)C(=NO)c2cc(S(=O)(=O)N4CC(C)CC(C)C4)ccc2C3=NOCCCNC(=O)CCCCCCCCCCNc2cccc3c2C(=O)N(C2CCC(=O)NC2=O)C3=O)C1 (stereo not drawn) [RY-3-124],> 20000,> 20000,> 20000,,
CC1CC(C)CN(S(=O)(=O)c2ccc3c(c2)C(=NO)c2cc(S(=O)(=O)N4CC(C)CC(C)C4)ccc2C3=NOCCCNC(=O)CCNc2cccc3c2C(=O)N(C2CCC(=O)NC2=O)C3=O)C1 (stereo not drawn) [RY-3-127],651,189,323,,
CC1CC(C)CN(S(=O)(=O)c2ccc3c(c2)C(=NO)c2cc(S(=O)(=O)N4CC(C)CC(C)C4)ccc2C3=NOCCCNC(=O)CCCCNc2cccc3c2C(=O)N(C2CCC(=O)NC2=O)C3=O)C1 (stereo not drawn) [RY-3-128],795,398,523,,
CC1CC(C)CN(S(=O)(=O)c2ccc3c(c2)C(=NO)c2cc(S(=O)(=O)N4CC(C)CC(C)C4)ccc2C3=NOCCCNC(=O)CCOCCNc2cccc3c2C(=O)N(C2CCC(=O)NC2=O)C3=O)C1 (stereo not drawn) [RY-3-129],1350,554,1040,,
CC1CC(C)CN(S(=O)(=O)c2ccc3c(c2)C(=NO)c2cc(S(=O)(=O)N4CC(C)CC(C)C4)ccc2C3=NOCCCNC(=O)CCCCCCNc2cccc3c2C(=O)N(C2CCC(=O)NC2=O)C3=O)C1 (stereo not drawn) [RY-3-130],929,355,530,,
CC1CC(C)CN(S(=O)(=O)c2ccc3c(c2)C(=NO)c2cc(S(=O)(=O)N4CC(C)CC(C)C4)ccc2C3=NOCCCNC(=O)CCOCCOCCNc2cccc3c2C(=O)N(C2CCC(=O)NC2=O)C3=O)C1 (stereo not drawn) [RY-3-131],> 20000,1880,> 20000,,
CC1CC(C)CN(S(=O)(=O)c2ccc3c(c2)C(=NO)c2cc(S(=O)(=O)N4CC(C)CC(C)C4)ccc2C3=NOCCCNC(=O)CCOCCOCCOCCNc2cccc3c2C(=O)N(C2CCC(=O)NC2=O)C3=O)C1 (stereo not drawn) [RY-3-132],> 20000,> 20000,> 20000,,
"C[C@@H]1C[C@H](C)CN(S(=O)(=O)c2ccc3c(c2)C(=NO)c2cc(S(=O)(=O)N4C[C@H](C)C[C@H](C)C4)ccc2C3=NO)C1 [Tegavivint, tegavivint, reference compound]",86,,,175,94
